Reference: PMC6949113, “Preclinical evaluation of AT-527, a novel guanosine nucleotide prodrug with potent, pan-genotypic activity against hepatitis C virus” (PLoS ONE, 2020)

What was measured:
CoV = experiment: Anti-coronavirus assay (XTT); assay type: cell-based; details: MRC5; CoV in MRC-5 cells
From the text: (§1) Determination of antiviral activity and cytotoxicity.

HRV = experiment: Anti-human rhinovirus assay (XTT); assay type: cell-based; details: Human rhinovirus sp.; HRV in H1-HeLa cells
From the text: (§2) Anti-Human Rhinovirus (HRV).
as §1

HeLa cells = experiment: XTT cytotoxicity, HeLa cells; assay type: cell-based; details: AdV assay
MRC-5 cells = experiment: XTT cytotoxicity, MRC-5 cells; assay type: cell-based; details: MRC-5, CoV assay
From the text: as §1

Vero cells = experiment: XTT cytotoxicity, Vero cells; assay type: cell-based, African green monkey; details: Zika assay
Zika = experiment: Anti-Zika virus assay (XTT); assay type: cell-based; details: Zika in Vero cells
From the text: Anti-Zika Virus (Zika). […] Monolayers were approximately 70% confluent for the assay. Zika virus strain MR766 was obtained from ATCC (VR-84) and a stock virus pool was produced in LLCMK2 cells.
as §1

AdV = experiment: Anti-adenovirus assay (XTT); assay type: cell-based; details: unidentified adenovirus; AdV in HeLa cells
From the text: as §1

H1-HeLa cells = experiment: XTT cytotoxicity, H1-HeLa cells; assay type: cell-based; details: HRV assay
From the text: as §2, §1

## NC(=O)c1ncn([C@@H]2O[C@H](CO)[C@@H](O)[C@H]2O)n1 [Ribavirin]
CoV
  EC50: 3.85 µM
HRV
  EC50: 17.1 µM
HeLa cells
  TC50: 11.7 µM
MRC-5 cells
  TC50: >100 µM
Vero cells
  TC50: 38.8 µM
Zika
  EC50: 5.65 µM
AdV
  EC50: 0.76 µM
H1-HeLa cells
  TC50: 40.6 µM
